Read-outs that look alike come from different tables or passages of the source.
Legend:
[1] = Measurement of LogP values by HPLC on reversed phase columns (EEC directive 79/831 Annex V.A8); assay type: physicochemical; conditions: acidic range, 0.1% formic acid in water and acetonitrile as eluent; for chromatographic logP: read-out: logP (HCOOH)[a]
Cooperia curticei = Cooperia curticei assay (COOPCU), larval mortality; assay type: cell-based; conditions: Cooperia curticei, 120 h, after 5 days, read-out: activity (percentage of larval mortality); for mortality at 20 ppm: application rate 20 ppm
Protocol: Cooperia Curticei—Assay (COOPCU)
(§1) Solvent: dimethyl sulfoxide
(§2) To produce a suitable preparation, 10 mg of active compound are dissolved in 0.5 ml solvent, and the concentrate is diluted with “Ringer's solution” to the desired concentration.
Approximately 40 nematode larvae (Cooperia curticei) are transferred into a test tube containing the compound solution.
After 5 days percentage of larval mortality is recorded. 100% efficacy means all larvae are killed; 0% efficacy means no larvae are killed.

Haemonchus contortus = Haemonchus contortus assay (HAEMCO), larval mortality; assay type: cell-based; conditions: after 5 days
Protocol: Haemonchus Contortus—Assay (HAEMCO)
as §1, §2
Approximately 40 larvae of the red stomach worm (Haemonchus contortus) are transferred into a test tube containing compound solution.
After 5 days percentage of larval mortality are recorded. 100% efficacy means all larvae are killed, 0% efficacy means no larvae are killed.

[2] = test system: Nippostrongylus brasiliensis; assay: Nippostrongylus brasiliensis assay (NIPOBR), acetylcholine esterase readout; assay type: cell-based; conditions: read-out: activity (reduction of AChE compared to negative control)
Protocol: Nippostrongylus Brasiliensis—Assay (NIPOBR)
Adult Nippostrongylus brasiliensis were washed with saline buffer containing 100 U/ml penicillin, 0.1 mg/ml streptomycin and 2.5 μg/ml amphotericin B. Test compounds were dissolved in DMSO and worms were incubated in medium in a final concentration of 10 μg/ml (10 ppm) respectively 1 μg/ml (1 ppm). An aliquot of the medium was used to determine the acetylcholine esterase activity in comparison to a negative control. The principle of measuring acetylcholine esterase as readout for anthelmintic activity was described in Rapson et al (1986) and Rapson et al (1987).

Meloidogyne incognita = Meloidogyne incognita assay (MELGIN), gall formation on salad seedlings; assay type: in vivo; conditions: application rate 20 ppm, after 14 days
Protocol: Meloidogyne Incognita—Assay (MELGIN)
Solvent: 125.0 parts by weight of acetone
To produce a suitable preparation, 1 part by weight of active compound is mixed with the stated amount of solvent, and the concentrate is diluted with water to the desired concentration.
Vessels are filled with sand, a solution of the active ingredient, a suspension containing eggs and larvae of the southern root-knot nematode (Meloidogyne incognita) and salad seeds. The salad seeds germinate and the seedlings grow. Galls develop in the roots.
After 14 days the nematicidal activity is determined on the basis of the percentage of gall formation. 100% means no galls were found and 0% means the number of galls found on the roots of the treated plants was equal to that in untreated control plants.

[3] = Haemonchus contortus, 120 h, application rate 20 ppm, read-out: activity (percentage of larval mortality)

| Structure (SMILES) | mortality at 20 ppm (Cooperia curticei) | mortality at 20 ppm (Haemonchus contortus; [3]) | logP (HCOOH)[a] [1] | nematicidal activity (percentage of gall formation) (Meloidogyne incognita) | also measured |
| --- | --- | --- | --- | --- | --- |
| O=C(NCC(F)(F)c1ccc(-c2ccc(Cl)cc2)cc1Cl)c1ccccc1C(F)(F)F [Example 1] | 100% | 100% | – | – | chromatographic logP [1]: 4.58; inhibition at 10 µg/mL ([2]; 10 μg/ml, adult worms): ≥ 75% |
| O=C(NCC(F)(F)c1ccc(-c2ccccc2)cc1Cl)c1ccccc1C(F)(F)F [Example 2] | 100% | 100% | – | – | chromatographic logP [1]: 4.05; inhibition at 10 µg/mL ([2]; 10 μg/ml, adult worms): ≥ 75% |
| O=C(NCC(F)(F)c1ccc(-c2ccc(F)cc2)cc1Cl)c1ccccc1C(F)(F)F [Example 3, N-[2-[2-chloro-4-(4-fluorophenyl)phenyl]-2,2-difluoro-ethyl]-2-(trifluoromethyl)benzamide] | 100% | 100% | 4.10 | – | chromatographic logP [1]: 4.14; inhibition at 10 µg/mL ([2]; 10 μg/ml, adult worms): ≥ 75% |
| O=C(NCC(F)(F)c1ccc(-c2ccc(Cl)cc2)cc1Cl)c1cccnc1C(F)(F)F [Example 4] | – | – | – | – | chromatographic logP ([1]; reversed phase HPLC columns): 4.14; mortality at 4 ppm (Cooperia curticei; application rate 4 ppm): 100%; mortality at 4 ppm (Haemonchus contortus; Haemonchus contortus, 120 h, application rate 4 ppm, read-out: activity (percentage of larval mortality)): 90% |
| O=C(NCC(F)(F)c1ccc(-c2ccc(Cl)cc2)cc1F)c1ccccc1C(F)(F)F [Example 5] | 100% | 80% | – | – | inhibition at 10 µg/mL [2]: ≥ 75% |
| O=C(NCC(F)(F)c1ccc(-c2ccc(F)cc2)cc1F)c1ccccc1C(F)(F)F [Example 7, N-(2-(3,4′-Difluoro-[1,1′-biphenyl]-4-yl)-2,2-difluoroethyl)-2-(trifluoromethyl)benzamide] | 100% | 90% | – | – | inhibition at 10 µg/mL ([2]; 10 μg/ml, adult worms): ≥ 75% |
| O=C(NCC(F)(F)c1ccc(-c2ccc(F)cc2)cc1Cl)c1cccnc1C(F)(F)F [Example 9] | 100% | 100% | – | 100% | chromatographic logP ([1]; reversed phase HPLC columns): 3.68 |
| O=C(NCC(F)(F)c1ccc(-c2ccc(F)cc2)cc1C(F)(F)F)c1ccccc1C(F)(F)F [Example 12, N-(2,2-Difluoro-2-(4′-fluoro-3-(trifluoromethyl)-[1,1′-biphenyl]-4-yl)ethyl)-2-(trifluoromethyl)benzamide] | 100% | 100% | – | – | inhibition at 10 µg/mL ([2]; 10 μg/ml, adult worms): ≥ 75% |
| O=C(NCC(F)(F)c1ccc(-c2ccc(Cl)cc2)cc1C(F)(F)F)c1ccccc1C(F)(F)F [Example 13] | 100% | 90% | – | – | inhibition at 10 µg/mL ([2]; 10 μg/ml, adult worms): ≥ 75% |
| O=C(NCC(F)(F)c1ccc(-c2ccc(OC(F)(F)F)cc2)cc1F)c1ccccc1C(F)(F)F [Example 14] | 100% | 90% | – | – | – |
| O=C(NCC(F)(F)c1ccc(-c2ccc(OC(F)(F)F)cc2)cc1C(F)(F)F)c1ccccc1C(F)(F)F [Example 15] | 100% | 90% | – | – | – |
| O=C(NCC(F)(F)c1c(F)cc(-c2ccc(F)cc2)cc1F)c1ccccc1C(F)(F)F [Example 16] | 100% | 100% | – | – | chromatographic logP ([1]; reversed phase HPLC columns): 3.95 |
| O=C(NCC(F)(F)c1ccc(-c2ccc(Cl)cc2)cc1C(F)(F)F)c1cccnc1C(F)(F)F [Example 18] | 100% | 100% | – | – | – |
| O=C(NCC(F)(F)c1ccc(-c2ccc(F)cc2)cc1F)c1cccnc1C(F)(F)F [Example 19] | 100% | 100% | – | – | – |
| O=C(NCC(F)(F)c1ccc(-c2ccc(Cl)cc2)cc1F)c1cccnc1C(F)(F)F [Example 20] | 100% | 90% | – | – | – |
| O=C(NCC(F)(F)c1ccc(-c2ccc(F)c(C(F)(F)F)c2)cc1Cl)c1ccccc1C(F)(F)F [Example 21] | 100% | 90% | – | – | chromatographic logP [1]: 4.55; inhibition at 10 µg/mL [2]: ≥ 75% |
| CSc1ccc(-c2ccc(C(F)(F)CNC(=O)c3ccccc3C(F)(F)F)c(Cl)c2)cc1 [Example 26] | 100% | 100% | – | – | chromatographic logP ([1]; reversed phase HPLC columns): 4.43 |
| O=C(NCC(F)(F)c1ccc(-c2c(F)cccc2F)cc1Cl)c1ccccc1C(F)(F)F [Example 31] | 100% | 80% | – | – | chromatographic logP ([1]; reversed phase HPLC columns): 3.99 |

| Structure (SMILES) | mortality at 20 ppm (Cooperia curticei) | mortality at 20 ppm (Haemonchus contortus; [3]) | logP (HCOOH)[a] [1] | nematicidal activity (percentage of gall formation) (Meloidogyne incognita) | also measured |
| --- | --- | --- | --- | --- | --- |
| COc1cc(-c2ccc(C(F)(F)CNC(=O)c3ccccc3C(F)(F)F)c(Cl)c2)ccc1F [Example 34] | 100% | 100% | – | – | chromatographic logP ([1]; reversed phase HPLC columns): 4.09 |
| N#Cc1cc(-c2ccc(C(F)(F)CNC(=O)c3ccccc3C(F)(F)F)c(Cl)c2)ccc1Cl [Example 95] | – | – | 4.07 | 100% | – |
| N#Cc1ccc(-c2ccc(C(F)(F)CNC(=O)c3ccccc3C(F)(F)F)c(Cl)c2)cc1C(F)(F)F [Example 97] | – | – | 4.12 | – | activity (percentage of larval mortality) (Haemonchus contortus; application rate 20 ppm): 80% |
| N#Cc1ccc(-c2ccc(C(F)(F)CNC(=O)c3ccccc3C(F)(F)F)c(Cl)c2)cc1Cl [Example 105] | – | – | 4.02 | 100% | – |
| O=C(NCC(F)(F)c1c(F)cc(-c2cc(F)c(F)c(F)c2)cc1F)c1ccccc1C(F)(F)F [Example 108] | – | – | 4.2 | 90% | – |
| Cc1cc(-c2cc(F)c(F)c(F)c2)ccc1C(F)(F)CNC(=O)c1ccccc1C(F)(F)F [Example 109] | – | – | 4.48 | 100% | – |
| O=C(NCC(F)(F)c1ccc(-c2cc(F)c(F)c(F)c2)cc1Cl)c1ncccc1C(F)(F)F [Example 112] | – | – | 4.23 | 100% | – |
| O=C(NCC(F)(F)c1ccc(-c2cc(F)c(F)c(F)c2)cc1Cl)c1ccccc1Cl [Example 115] | – | – | 4.23 | 100% | – |
| O=C(NCC(F)(F)c1ccc(-c2cc(F)c(F)c(F)c2)cc1Cl)c1c(F)cccc1F [Example 117] | – | – | 4.05 | 100% | – |
| Cc1cc(-c2ccc(F)cc2F)ccc1C(F)(F)CNC(=O)c1ccccc1C(F)(F)F [Example 119] | – | – | 4.15 | 100% | – |
| Cc1cc(-c2ccc(F)c(F)c2)ccc1C(F)(F)CNC(=O)c1ccccc1C(F)(F)F [Example 120] | – | – | 4.2 | 100% | – |
| Cc1cc(-c2ccc(Cl)c(Cl)c2)ccc1C(F)(F)CNC(=O)c1ccccc1C(F)(F)F [Example 122] | – | – | 4.98 | 100% | – |
| Cc1cc(-c2cccc(Cl)c2)ccc1C(F)(F)CNC(=O)c1ccccc1C(F)(F)F [Example 123] | – | – | 4.56 | 100% | – |
| Cc1cc(-c2ccc(F)c(Cl)c2)ccc1C(F)(F)CNC(=O)c1ccccc1C(F)(F)F [Example 124] | – | – | 4.56 | 100% | – |
| Cc1cc(-c2ccc(Cl)c(F)c2)ccc1C(F)(F)CNC(=O)c1ccccc1C(F)(F)F [Example 125] | – | – | 4.61 | 100% | – |
| Cc1cc(-c2cc(F)c(Cl)c(F)c2)ccc1C(F)(F)CNC(=O)c1ccccc1C(F)(F)F [Example 126] | – | – | 4.77 | 90% | – |
| Cc1cc(-c2cccc(F)c2F)ccc1C(F)(F)CNC(=O)c1ccccc1C(F)(F)F [Example 127] | – | – | 4.1 | 90% | – |

Source: patent US20170320848A1, “COMPOUNDS FOR USE IN ANTHELMINTHIC TREATMENT” (Bayer Animal Health GMBH, priority 2014, published 2017)
